Patent US20250129009A1, “Compound and Method for Identifying Impurities Included Therein” (LG CHEM, LTD., priority 2022, published 2025)

Experiment: Measurement of turbidity by UV/Vis spectroscopy (Method 1)
Format: physicochemical
Details: 20 wt % aqueous solution; for Absorbance: light at 290 nm, 1 mm cuvette, DI water reference
Method: A 20 wt % aqueous solution of the compound is analyzed by UV/Vis spectroscopy to measure the absorbance Abs to light at a wavelength of 290 nm, and the turbidity Tb is derived from the measured absorbance Abs by the following Equation 1.
A 20 wt % aqueous solution of the compound is analyzed by UV/Vis spectroscopy to measure the absorbance Abs to light at a wavelength of 290 nm, and a turbidity Tb is derived from the measured absorbance Abs by the following Equation 1.
The absorbance of light at a wavelength of 290 nm is confirmed by analyzing 5 types of turbidity standard solutions (0, 1, 10, 100, and 1000 NTU, respectively) by UV/Vis spectroscopy (using Agilent 8453, 200 to 1100 nm, resolution 2 nm, 1 mm cuvette). In this case, an empty cuvette cell is used as a reference for measurement. A calibration curve (Equation 1) is derived from the absorbance according to the 0 NTU to 1,000 NTU interval. (NTU: Nephelometric Turbidity Unit, water quality standard 1 NTU)
UV/Vis was measured for Samples 1 to 7 prepared in Preparation Example B above using Method 1 of the present disclosure, and the results are illustrated in FIG. 1. Further, values obtained by converting the measured absorbance (Abs) into turbidity using the following Equation 1 are shown in the following Table 1.
500 mg of each of Samples 1 to 7 were put into a vial, a 20 wt % aqueous solution was prepared using distilled water (DI water), and then UV/Vis spectroscopy (using Agilent 8453, 200 to 1100 nm, resolution 2 nm, 1 mm cuvette) was analyzed to confirm the absorbance of light at a wavelength of 290 nm. In this case, DI water was used as a reference for measurement.
The absorbance of light at a wavelength of 290 nm was confirmed by analyzing 5 types of turbidity standard solutions (0, 1, 10, 100, and 1000 NTU, respectively) by UV/Vis spectroscopy (using Agilent 8453, 200 to 1100 nm, resolution 2 nm, 1 mm cuvette). In this case, an empty cuvette cell was used as a reference for measurement.
A calibration curve (Equation 1) was derived from the absorbance according to the 0 NTU to 1,000 NTU interval. (NTU: Nephelometric Turbidity Unit, water quality standard 1 NTU)
Turbidity was derived by introducing the absorbance of Samples 1 to 7 confirmed in 1) above into Equation 1.

C=CC(=O)OCC[N+](CCCC)(CCCC)CCCCCCCCCCCC [Sample 2]
Absorbance: 0.1615

C=CC(=O)OCC[N+](CCCC)(CCCC)CCCCCCCCCCCC [Sample 3]
Absorbance: 0.3459

C=CC(=O)OCC[N+](CCCC)(CCCC)CCCCCCCCCCCC [Sample 5]
Absorbance: 0.2796
Turbidity (converted from absorbance at 290 nm by Equation 1 (calibration 0 to 1,000 NTU standards)): 74
